According to US20260240809A1 (EDMOND PHARMA SRL, priority 2022, published 2026):
In brackets after ≈: the same amount, converted by molar mass. Where two headings read alike, the source gives them in different places. Values belong to the compound of their own block, whether it stands above or below them.

Key:
TrkA receptor = target: T1, TrkA receptor (Homo sapiens, UniProt P04629); test: Phospho-TrkA (Tyr674/675) ELISA: activation of TrkA receptor by NGF in SH-SY5Y cells; assay type: cell-based; details: for effect on basal activity in absence of NGF: FIG. 4
T1 construct: host or cells: SH-SY5Y human neuroblastoma cells
T1 sequence (P04629 33-796): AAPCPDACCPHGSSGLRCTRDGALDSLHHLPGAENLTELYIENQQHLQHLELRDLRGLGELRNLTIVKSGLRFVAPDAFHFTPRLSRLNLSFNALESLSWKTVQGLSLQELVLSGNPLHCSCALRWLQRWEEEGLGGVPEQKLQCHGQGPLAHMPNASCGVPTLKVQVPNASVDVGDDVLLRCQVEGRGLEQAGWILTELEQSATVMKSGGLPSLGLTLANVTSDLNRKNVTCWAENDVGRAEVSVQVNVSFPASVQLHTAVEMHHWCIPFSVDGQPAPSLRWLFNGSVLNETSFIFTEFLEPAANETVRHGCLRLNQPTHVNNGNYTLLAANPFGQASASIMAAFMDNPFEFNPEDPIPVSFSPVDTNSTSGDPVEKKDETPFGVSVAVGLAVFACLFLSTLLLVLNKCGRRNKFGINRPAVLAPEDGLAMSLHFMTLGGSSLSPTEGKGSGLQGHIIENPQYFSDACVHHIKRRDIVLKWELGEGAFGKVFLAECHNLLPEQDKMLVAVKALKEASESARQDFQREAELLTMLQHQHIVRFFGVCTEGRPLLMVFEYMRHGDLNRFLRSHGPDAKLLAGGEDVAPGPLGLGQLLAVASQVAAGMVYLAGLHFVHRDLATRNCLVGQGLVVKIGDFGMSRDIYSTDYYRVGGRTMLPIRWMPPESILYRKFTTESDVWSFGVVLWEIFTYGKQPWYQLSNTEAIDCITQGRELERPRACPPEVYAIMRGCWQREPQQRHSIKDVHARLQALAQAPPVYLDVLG
Experimental: The experiment is based on a commercially available ELISA assay evaluating the amount of phosphorylated TrkA (Pandre M K. et al., 2018) and used as indicated in the producer's protocol. The cell culture conditions were described in Marchesi N. et al., 2020.
All the experiments were performed under a laminar flow hood.
The phospho-TrkA (Tyr674/675) protein levels in SH-SY5Y cells were estimated with a specific ELISA kit (Cell Signaling, #7212C.), according to the manufacturer's instructions.
PathScan® Phospho-TrkA (Tyr674/675) Sandwich ELISA Kit is a solid phase sandwich enzyme-linked immunosorbent assay that detects […] levels of Phospho-TrkA (Tyr674/675) protein. A TrkA Mouse mAb #4614 has been coated onto the microwells. After incubation with cell lysates, both phospho- and nonphospho-TrkA proteins are captured by the coated antibody. Following extensive washing to remove any unbound antibody/reagent, Phospho-TrkA (Tyr674/675) Antibody #4610 is added to detect phospho-TrkA protein. Anti-rabbit IgG, HRP-linked Antibody #7074 is then used to recognize the bound detection antibody. HRP substrate, TMB (3,3′,5,5′-tetramethylbenzidine), is added to develop color. The magnitude of optical density is proportional to the quantity of Phospho-TrkA (Tyr674/675) protein.
The color development was stopped and the intensity of the color measured at 450 nm using a Synergy HT microplate reader (BioTek Instruments). The antibodies used in the kit were custom formulations specific for the kit.

[1] = Solubility of the test substances; assay type: physicochemical
SH-SY5Y cells = assay type: cell-based; details: human
Experimental: Accordingly, two time points were explored: short (90 min) and long (24 hrs). In general, longer times of exposure may sometime influence the chosen response to the test conditions/substances; it is therefore important in the starting exploratory protocols to explore an adequate time interval.
The cellular toxicity was evaluated by measuring the mitochondrial activity through the MTT assay (Marchesi N. et al., 2020).
Mitochondrial enzymatic activity was estimated by MTT [3-(4,5-dimethylthiazol-2-yl)-2,5-diphenyltetrazolium bromide] assay (Sigma-Aldrich). A cell suspension of 2×10^4 cells/mL SH-SY5Y cell line was seeded into 96-well plates.
Following each treatment of 90 minutes and 24 hours, 50 μL of MTT (concentration equal to 2.5 mg/mL) were added to each well. After incubation at 37° C. for 3 hours, the purple formazan crystals were formed. The formed crystals were solubilized in dimethylsulfoxide (DMSO; Sigma-Aldrich). Specifically, after removing the MTT from the wells, 100 μL of DMSO were added in order to lyse the cellular and mitochondrial membranes, and solubilize the formazan crystals. After 10 minutes, absorbance values were measured at 595 nm using a Synergy HT microplate reader (BioTek Instruments) and the results expressed as % with respect to control. […]

[2] = 1 mM, 24 hrs, FIG. 9, Dunnett's test
[3] = 10 mM, 24 hrs, FIG. 8, Dunnett's test
[4] = 10 mM, 24 hrs, FIG. 9, Dunnett's test
[5] = 24 hrs exposure, no NGF, FIG. 8
[6] = SH-SY5Y, read-out: inhibition of TrkA activation by NGF, 10 mM, 24 hrs exposure, FIG. 8
[7] = 10 mM, 90 min, FIG. 4, Tukey's test
[8] = SH-SY5Y, read-out: inhibition of NGF (reduction of the response to NGF)
[9] = SH-SY5Y, read-out: inhibition of TrkA activation by NGF

Statistically significant (NGF vs. substance + NGF) (TrkA receptor; 1 nM, 24 hrs, FIG. 9, Dunnett's test): No
Statistically significant (NGF vs. substance + NGF) (TrkA receptor; 100 nM, 24 hrs, FIG. 9, Dunnett's test): Yes
effect on TrkA activation by NGF (TrkA receptor; 100 nM, 24 hrs, no change up to 10 mM, FIG. 9): already maximal
Statistically significant (NGF vs. substance + NGF) (TrkA receptor; 1 uM, 24 hrs, FIG. 9, Dunnett's test): Yes
Statistically significant (NGF vs. substance + NGF) (TrkA receptor; 0.01 mM, 24 hrs, FIG. 9, Dunnett's test): Yes
Statistically significant (NGF vs. substance + NGF) (TrkA receptor; 0.05 mM, 24 hrs, FIG. 9, Dunnett's test): Yes
Statistically significant (NGF vs. substance + NGF) (TrkA receptor; 0.1 mM, 24 hrs, FIG. 9, Dunnett's test): Yes
Statistically significant (NGF vs. substance + NGF) (TrkA receptor; [2]): No
Statistically significant (NGF vs. substance + NGF) (TrkA receptor; 5 mM, 24 hrs, FIG. 9, Dunnett's test): Yes
Statistically significant (NGF vs. substance + NGF) (TrkA receptor; [3]): Yes
Statistically significant (NGF vs. substance + NGF) (TrkA receptor; [4]): Yes
IC50 (TrkA receptor; 24 hrs exposure, FIG. 9): 0.001 to 0.1 µM
effect on the basal activity (TrkA receptor; [5]): no effect
inhibition at 10000 µM (TrkA receptor; [6]): 41%
Structure (SMILES): O=C(O)CSCC(=O)N[C@H]1CCSC1=O [Erdo S]

solubility ([1]; water): 164 mg/mL (≈ 613 mM)
decrease of mitochondrial activity (SH-SY5Y cells; 24 h, 10 mM): 17.5%
Statistically significant (NGF vs. substance + NGF) (TrkA receptor; [7]): Yes
Statistically significant (NGF vs. substance + NGF) (TrkA receptor; 20 mM, 90 min, FIG. 3, Tukey's test): Yes
Statistically significant (NGF vs. substance + NGF) (TrkA receptor; 20 mM, 90 min, FIG. 4, Tukey's test): Yes
Statistically significant (NGF vs. substance + NGF) (TrkA receptor; 40 mM, 90 min, FIG. 3, Tukey's test): Yes
effect on basal pTrkA levels (substance alone) (TrkA receptor; 20 and 40 mM, 90 min, no NGF, FIG. 3): did not alter
effect on basal activity in absence of NGF (TrkA receptor; 90 min, no NGF): do not modify
inhibition at 10000 µM (TrkA receptor; [8]): 23%
inhibition at 20000 µM (TrkA receptor; [8]): 24.5%
inhibition at 20000 µM (TrkA receptor; [9]): 34%
inhibition at 40000 µM (TrkA receptor; [9]): 52%
Structure (SMILES): O=C(O)CSCC(=O)NC(CCS)C(=O)O (stereo not shown) [Met-1]

Structure (SMILES): O=C(O)CSCC(=O)N[C@@H]1CCSC1=O [Erdo R]
inhibition of TrkA activation by NGF (TrkA receptor; 10 mM, 24 hrs exposure, FIG. 8): 30%
Statistically significant (NGF vs. substance + NGF) (TrkA receptor; [3]): Yes
effect on the basal activity (TrkA receptor; [5]): no effect

solubility at 20 min ([1]; 37 °C, aqueous buffer, MEM, warming 20 minutes at 37°): 11 mg/mL (≈ 44.1 mM)
decrease in mitochondrial activity (SH-SY5Y cells; 90 min, 20 mM): 16.3%
Statistically significant (NGF vs. substance + NGF) (TrkA receptor; 0.1 mM, 24 h, FIG. 7, Tukey's test): No
inhibitory action on TrkA activation by NGF (TrkA receptor; 0.1 mM, 24 hrs exposure, FIG. 7): ineffective
Statistically significant (NGF vs. substance + NGF) (TrkA receptor; 0.5 mM, 24 h, FIG. 7, Tukey's test): Yes
inhibition of TrkA activation by NGF at plateau (TrkA receptor; 1 mM and higher (up to 10 mM), 24 hrs exposure, FIG. 7): around 40%
Statistically significant (NGF vs. substance + NGF) (TrkA receptor; 1 mM, 24 h, FIG. 7, Tukey's test): Yes
inhibitory action on TrkA activation by NGF (TrkA receptor; 1.0 mM, 24 hrs exposure, FIG. 7): significant inhibitory action
Statistically significant (NGF vs. substance + NGF) (TrkA receptor; [2]): No
Statistically significant (NGF vs. substance + NGF) (TrkA receptor; 5 mM, 24 h, FIG. 7, Tukey's test): Yes
Statistically significant (NGF vs. substance + NGF) (TrkA receptor; 10 mM, 90', FIG. 6, Tukey's test): Yes
Statistically significant (NGF vs. substance + NGF) (TrkA receptor; [7]): No
Statistically significant (NGF vs. substance + NGF) (TrkA receptor; 10 mM, 24 h, FIG. 6, Tukey's test): Yes
Statistically significant (NGF vs. substance + NGF) (TrkA receptor; 10 mM, 24 h, FIG. 7, Tukey's test): Yes
Statistically significant (NGF vs. substance + NGF) (TrkA receptor; [3]): Yes
Statistically significant (NGF vs. substance + NGF) (TrkA receptor; [4]): Yes
effect on basal activity in absence of NGF (TrkA receptor; 90 min, no NGF): do not modify
IC50 (TrkA receptor; 24 hrs exposure, FIG. 9): 500 to 1000 µM
inhibition at 10000 µM (TrkA receptor; SH-SY5Y, 10 mM, 24 hours exposure, FIG. 6, read-out: inhibition of TrkA phosphorylation): 42.2%
inhibition at 10000 µM (TrkA receptor; SH-SY5Y, read-out: inhibition of NGF (reduction of the response to NGF), 10 mM, 90 min pre-exposure, NGF 100 ng/ml, FIG. 4): 8.2%
inhibition at 10000 µM (TrkA receptor; SH-SY5Y, read-out: inhibition of TrkA activation by NGF, 10 mM, 90 min exposure, FIG. 6): 13.9%
inhibition at 10000 µM (TrkA receptor; [6]): 36%
Structure (SMILES): O=C(O)CSCC(=O)NC1CCSC1=O (racemic) [erdosteine, (2-[N-3-(2-oxotetrahydrothienyl)]acetamido)-thioglycolic acid, reference compound]
inhibitory action on TrkA activation by NGF (TrkA receptor; 0.5 mM, 24 hrs exposure, FIG. 7): a trend which is appreciable but not strongly statistically significant
